According to patent US11419806B2, “Prebiotic oral care methods using a saccharide” (Colgate-Palmolive Company, priority 2013, dated 2022):

What was measured:
Assay type in all cases: cell-based
[1] = system: beneficial oral bacteria and pathogenic oral bacteria; experiment: Twenty-four hour optical density, overall prebiotic assessment; conditions: concentrations of 10, 20 and 25 μmol/ml
Description: Substrates that were able to increase the growth (or maximal growth density or extent of growth) of at least one of the above beneficial bacteria while not or only minimally increasing the growth (or maximal growth density) of the pathogenic bacteria are considered to be prebiotic compounds.
The extent of growth of the tested bacteria in response to selected saccharides (myo-inositol, D-lactitol, D-turanose and N-acetyl-D-mannosamine) was investigated by setting up growth curves in a nutritionally rich medium (brain heart infusion broth (BHI), Oxoid), over 24 hours. Late exponential growth phase liquid cultures were prepared by transferring the respective bacterium from blood agar plates to BHI and overnight incubation at 37° C. in an anaerobic atmosphere for A. viscosus, V. parvula, F. nucleatum, P. gingivalis, P. intermedia, T. forsythia, A. naeslundii, and C. sputigena, and in a 5% CO2 environment for S. salivarius, S. sanguinis, S. mitis, A. actinomycetemcomitans, S. mutans, S. sobrinus and S. gordonii. […]
(§1) For each combination of bacterium/saccharide, and for each of their respective controls (i.e. the particular bacterium in the nutritionally rich medium with no saccharide), the optical density was measured at 630 nm (OD630) at 0 h and 24 h (Thermo Scientific Multiskan Ascent). Additionally, the OD630 for combinations of bacterium/saccharides grown in a 5% CO2 environment were also measured every hour between 0 h and 9 h.
The experiment was carried out on three different days (thus providing 3 biological replicas) and on each day the experiment was carried out in quadruple (thus providing 4 technical replicas) for each combination of bacterium with saccharide and for each control. For each day and for each combination, the average (mean) of the values obtained (as detailed above) for the four technical replicas was calculated to provide a single value for each combination on each day. […]

[2] = system: Aggregatibacter actinomycetemcomitans; experiment: Twenty-four hour optical density growth in BHI; conditions: A actinomycetemcomitans
Description: (§2) The extent of growth of the tested bacteria in response to selected saccharides (myo-inositol, D-lactitol, D-turanose and N-acetyl-D-mannosamine) was investigated by setting up growth curves in a nutritionally rich medium (brain heart infusion broth (BHI), Oxoid), over 24 hours. Late exponential growth phase liquid cultures were prepared by transferring the respective bacterium from blood agar plates to BHI and overnight incubation at 37° C. in an anaerobic atmosphere for A. viscosus, V. parvula, F. nucleatum, P. gingivalis, P. intermedia, T. forsythia, A. naeslundii, and C. sputigena, and in a 5% CO2 environment for S. salivarius, S. sanguinis, S. mitis, A. actinomycetemcomitans, S. mutans, S. sobrinus and S. gordonii. Overnight cultures were transferred to BHI and adjusted to a concentration of 1×10^7 CFU/ml (colony forming units per ml) by measuring the optical density at 600 nm (OD600) (BioRad SmartSpec 3000). For each strain, 200 μl of the bacterial suspension was added to a 96-well plate containing 20 μl of the respective saccharides. Final concentrations of the saccharides were set to 5, 10, 20 and 25 μmol/ml. […] Plates were incubated as previously described.
as §1
(§3) The experiment was carried out on three different days (thus providing 3 biological replicas) and on each day the experiment was carried out in quadruple (thus providing 4 technical replicas) for each combination of bacterium with saccharide and for each control. For each day and for each combination, the average (mean) of the values obtained (as detailed above) for the four technical replicas was calculated to provide a single value for each combination on each day. The values shown in Tables 5a,b to 6a,b, below, are the average (mean) of the three single values obtained for each combination of bacterium with saccharide.

Porphyromonas gingivalis = experiment: Twenty-four hour optical density growth in BHI; conditions: P gingivalis
Description: as §2, §1, §3

Streptococcus salivarius = experiment: Twenty-four hour optical density growth in BHI; conditions: S salivarius
Description: as §2, §1, §3

Veillonella parvula = experiment: Twenty-four hour optical density growth in BHI; conditions: V parvula
Description: as §2, §1, §3

Streptococcus mitis = experiment: Twenty-four hour optical density growth in BHI; conditions: S mitis
Description: as §2, §1, §3

Prevotella intermedia = experiment: Twenty-four hour optical density growth in BHI; conditions: P intermedia
Description: as §2, §1, §3

S. sanguinis = experiment: Twenty-four hour optical density growth in BHI
Description: as §2, §1, §3

Tannerella forsythia = experiment: Twenty-four hour optical density growth in BHI; conditions: T forsythia
Description: as §2, §1, §3

Actinomyces naeslundii = experiment: Twenty-four hour optical density growth in BHI; conditions: A naeslundii
Description: as §2, §1, §3

Fusobacterium nucleatum = experiment: Twenty-four hour optical density growth in BHI; conditions: F nucleatum
Description: as §2, §1, §3

Streptococcus sobrinus = experiment: Twenty-four hour optical density growth in BHI; conditions: S sobrinus
Description: as §2, §1, §3

Capnocytophaga sputigena = experiment: Twenty-four hour optical density growth in BHI; conditions: C sputigena
Description: as §2, §1, §3

Streptococcus gordonii = experiment: Twenty-four hour optical density growth in BHI; conditions: S gordonii
Description: as §2, §1, §3

Streptococcus mutans = experiment: Twenty-four hour optical density growth in BHI; conditions: for extent of growth: maximal OD630 over 24 hr divided by maximal OD of control (control = 1): S mutans
Description: as §2, §1, §3

Actinomyces viscosus = experiment: Twenty-four hour optical density growth in BHI; conditions: A viscosus
Description: as §2, §1, §3

OC[C@@H](O)[C@@H](O[C@H]1O[C@H](CO)[C@H](O)[C@H](O)[C@H]1O)[C@H](O)[C@@H](O)CO [D-Lactitol, 4-O-α-D-galactopyranosyl-D-glucitol]
prebiotic effects (extent of growth, threshold value 1.25) [1]: exhibited prebiotic effects | extent of growth: maximal OD630 over 24 hr divided by maximal OD of control (control = 1) ([2]; 5 μmol/ml): 0.7044 | extent of growth: maximal OD630 over 24 hr divided by maximal OD of control (control = 1) ([2]; 10 μmol/ml): 0.7052 | extent of growth: maximal OD630 over 24 hr divided by maximal OD of control (control = 1) ([2]; 20 μmol/ml): 0.6952 | extent of growth: maximal OD630 over 24 hr divided by maximal OD of control (control = 1) ([2]; 25 μmol/ml): 0.7095 | extent of growth: maximal OD630 over 24 hr divided by maximal OD of control (control = 1) (Porphyromonas gingivalis; 5 μmol/ml): 0.9615 | extent of growth: maximal OD630 over 24 hr divided by maximal OD of control (control = 1) (Porphyromonas gingivalis; 10 μmol/ml): 0.9989 | extent of growth: maximal OD630 over 24 hr divided by maximal OD of control (control = 1) (Porphyromonas gingivalis; 20 μmol/ml): 0.9706 | extent of growth: maximal OD630 over 24 hr divided by maximal OD of control (control = 1) (Porphyromonas gingivalis; 25 μmol/ml): 1.0115 | extent of growth: maximal OD630 over 24 hr divided by maximal OD of control (control = 1) (Streptococcus salivarius; 5 μmol/ml): 1.1349 | extent of growth: maximal OD630 over 24 hr divided by maximal OD of control (control = 1) (Streptococcus salivarius; 10 μmol/ml): 1.3489 | extent of growth: maximal OD630 over 24 hr divided by maximal OD of control (control = 1) (Streptococcus salivarius; 20 μmol/ml): 1.3431 | extent of growth: maximal OD630 over 24 hr divided by maximal OD of control (control = 1) (Streptococcus salivarius; 25 μmol/ml): 1.3159 | extent of growth: maximal OD630 over 24 hr divided by maximal OD of control (control = 1) (Veillonella parvula; 5 μmol/ml): 0.8722 | extent of growth: maximal OD630 over 24 hr divided by maximal OD of control (control = 1) (Veillonella parvula; 10 μmol/ml): 0.8854 | extent of growth: maximal OD630 over 24 hr divided by maximal OD of control (control = 1) (Veillonella parvula; 20 μmol/ml): 0.8909 | extent of growth: maximal OD630 over 24 hr divided by maximal OD of control (control = 1) (Veillonella parvula; 25 μmol/ml): 0.9054 | extent of growth: maximal OD630 over 24 hr divided by maximal OD of control (control = 1) (Streptococcus mitis; 5 μmol/ml): 0.8694 | extent of growth: maximal OD630 over 24 hr divided by maximal OD of control (control = 1) (Streptococcus mitis; 10 μmol/ml): 0.9020 | extent of growth: maximal OD630 over 24 hr divided by maximal OD of control (control = 1) (Streptococcus mitis; 20 μmol/ml): 0.9151 | extent of growth: maximal OD630 over 24 hr divided by maximal OD of control (control = 1) (Streptococcus mitis; 25 μmol/ml): 0.8839 | extent of growth: maximal OD630 over 24 hr divided by maximal OD of control (control = 1) (Prevotella intermedia; 5 μmol/ml): 0.9178 | extent of growth: maximal OD630 over 24 hr divided by maximal OD of control (control = 1) (Prevotella intermedia; 10 μmol/ml): 0.9210 | extent of growth: maximal OD630 over 24 hr divided by maximal OD of control (control = 1) (Prevotella intermedia; 20 μmol/ml): 0.9185 | extent of growth: maximal OD630 over 24 hr divided by maximal OD of control (control = 1) (Prevotella intermedia; 25 μmol/ml): 0.9036 | extent of growth: maximal OD630 over 24 hr divided by maximal OD of control (control = 1) (S. sanguinis; 5 μmol/ml): 0.8901 | extent of growth: maximal OD630 over 24 hr divided by maximal OD of control (control = 1) (S. sanguinis; 10 μmol/ml): 0.9323 | extent of growth: maximal OD630 over 24 hr divided by maximal OD of control (control = 1) (S. sanguinis; 20 μmol/ml): 0.9356 | extent of growth: maximal OD630 over 24 hr divided by maximal OD of control (control = 1) (S. sanguinis; 25 μmol/ml): 0.9393 | extent of growth: maximal OD630 over 24 hr divided by maximal OD of control (control = 1) (Tannerella forsythia; 5 μmol/ml): 0.9351 | extent of growth: maximal OD630 over 24 hr divided by maximal OD of control (control = 1) (Tannerella forsythia; 10 μmol/ml): 0.9434 | extent of growth: maximal OD630 over 24 hr divided by maximal OD of control (control = 1) (Tannerella forsythia; 20 μmol/ml): 0.9426 | extent of growth: maximal OD630 over 24 hr divided by maximal OD of control (control = 1) (Tannerella forsythia; 25 μmol/ml): 0.9367 | extent of growth: maximal OD630 over 24 hr divided by maximal OD of control (control = 1) (Actinomyces naeslundii; 5 μmol/ml): 1.0156 | extent of growth: maximal OD630 over 24 hr divided by maximal OD of control (control = 1) (Actinomyces naeslundii; 10 μmol/ml): 1.0334 | extent of growth: maximal OD630 over 24 hr divided by maximal OD of control (control = 1) (Actinomyces naeslundii; 20 μmol/ml): 1.0688 | extent of growth: maximal OD630 over 24 hr divided by maximal OD of control (control = 1) (Actinomyces naeslundii; 25 μmol/ml): 1.0686 | extent of growth: maximal OD630 over 24 hr divided by maximal OD of control (control = 1) (Fusobacterium nucleatum; 5 μmol/ml): 0.9876 | extent of growth: maximal OD630 over 24 hr divided by maximal OD of control (control = 1) (Fusobacterium nucleatum; 10 μmol/ml): 0.9482 | extent of growth: maximal OD630 over 24 hr divided by maximal OD of control (control = 1) (Fusobacterium nucleatum; 20 μmol/ml): 0.9034 | extent of growth: maximal OD630 over 24 hr divided by maximal OD of control (control = 1) (Fusobacterium nucleatum; 25 μmol/ml): 0.8805 | extent of growth: maximal OD630 over 24 hr divided by maximal OD of control (control = 1) (Streptococcus sobrinus; 5 μmol/ml): 1.0650 | extent of growth: maximal OD630 over 24 hr divided by maximal OD of control (control = 1) (Streptococcus sobrinus; 10 μmol/ml): 1.0189 | extent of growth: maximal OD630 over 24 hr divided by maximal OD of control (control = 1) (Streptococcus sobrinus; 20 μmol/ml): 1.0335 | extent of growth: maximal OD630 over 24 hr divided by maximal OD of control (control = 1) (Streptococcus sobrinus; 25 μmol/ml): 1.0163 | extent of growth: maximal OD630 over 24 hr divided by maximal OD of control (control = 1) (Capnocytophaga sputigena; 5 μmol/ml): 0.8996 | extent of growth: maximal OD630 over 24 hr divided by maximal OD of control (control = 1) (Capnocytophaga sputigena; 10 μmol/ml): 0.8742 | extent of growth: maximal OD630 over 24 hr divided by maximal OD of control (control = 1) (Capnocytophaga sputigena; 20 μmol/ml): 0.8416 | extent of growth: maximal OD630 over 24 hr divided by maximal OD of control (control = 1) (Capnocytophaga sputigena; 25 μmol/ml): 0.8337 | extent of growth: maximal OD630 over 24 hr divided by maximal OD of control (control = 1) (Streptococcus gordonii; 5 μmol/ml): 0.9828 | extent of growth: maximal OD630 over 24 hr divided by maximal OD of control (control = 1) (Streptococcus gordonii; 10 μmol/ml): 0.9945 | extent of growth: maximal OD630 over 24 hr divided by maximal OD of control (control = 1) (Streptococcus gordonii; 20 μmol/ml): 0.9931 | extent of growth: maximal OD630 over 24 hr divided by maximal OD of control (control = 1) (Streptococcus gordonii; 25 μmol/ml): 1.0101 | stimulation of growth of S. mutans (Streptococcus mutans; Example 2): does not stimulate growth | extent of growth: maximal OD630 over 24 hr divided by maximal OD of control (control = 1) (Streptococcus mutans; 5 μmol/ml): 0.9466 | extent of growth: maximal OD630 over 24 hr divided by maximal OD of control (control = 1) (Streptococcus mutans; 10 μmol/ml): 0.9230 | extent of growth: maximal OD630 over 24 hr divided by maximal OD of control (control = 1) (Streptococcus mutans; 20 μmol/ml): 0.9036 | extent of growth: maximal OD630 over 24 hr divided by maximal OD of control (control = 1) (Streptococcus mutans; 25 μmol/ml): 0.9149 | extent of growth: maximal OD630 over 24 hr divided by maximal OD of control (control = 1) (Actinomyces viscosus; 5 μmol/ml): 0.8614 | extent of growth: maximal OD630 over 24 hr divided by maximal OD of control (control = 1) (Actinomyces viscosus; 10 μmol/ml): 0.9554 | extent of growth: maximal OD630 over 24 hr divided by maximal OD of control (control = 1) (Actinomyces viscosus; 20 μmol/ml): 1.0275 | extent of growth: maximal OD630 over 24 hr divided by maximal OD of control (control = 1) (Actinomyces viscosus; 25 μmol/ml): 1.0300
